We go through seven compounds from PubChem BioAssay (NCI).

What all share (test): NCI anticancer screen, dose series, 48 h
Experiment [1] deals with A549 NSCLC.
The test system of experiment [2] is DU-145 prostate.
Experiment [3] concerns MCF7 breast.
The test system of experiment [4] is MDA-MB-231 breast.
The subject of experiment [5] is MDA-MB-435.
The test system of experiment [6] is NCI/ADR-RES ovarian.
Experiment [7] concerns T-47D breast.
Experiment [8] has as its system BT-549 breast.
The test system of experiment [9] is SN12C renal.
In experiment [10] the test system is SNB-75 CNS.

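Briefly, cells in 96-well plates were exposed to five compound concentrations for 48 h, and endpoints were estimated by linear interpolation. GI50 is the concentration that inhibits growth by half. TGI: concentration producing complete growth inhibition.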 Where a SMILES comes first, the peptide text is derived from it. [ ]: non-standard residue; d: D form. The star is where a group is joined. ξ: configuration not given here. ξF = NC(Cc1ccccc1)C(=O)O; Cbz = O=C(OCc1ccccc1)*; Aib = CC(C)(N)C(=O)O A value given as a limit tells only on which side of the number the result lay.

For `COC(=O)C(C)(C)NC(=O)C(Cc1ccccc1)NC(=O)C(C)(C)NC(=O)OCc1ccccc1` (stereo unspecified) (Cbz-[Aib]-[ξF]-[Aib]-OMe), the TGI in experiment [1], in experiment [2], in experiment [3], in experiment [4], in [5] and in [6] was greater than 100 µM in each case. In [7], this compound returned a TGI greater than 100 µM.
Regarding `CC(=O)ON1C(=O)c2cccc3cccc(c23)C1=O`, the TGI in experiment [1] was greater than 100 µM; in [8], 74.5 µM; in [2], 40.2 µM; in experiment [3] it was greater than 100 µM; in [4] it was greater than 100 µM; in experiment [5] it was 39.8 µM. Also, the results for the TGI in experiment [6] and in experiment [7] were greater than 100 µM and 63.8 µM, respectively.
`CC(C)(CCCCC(C)(C)C1NC(=O)N1)C1NC(=O)N1`: the TGI in experiment [1], in experiment [2], in [3], in [4], in [5] and in [6] was greater than 10 µM throughout. Moreover, the TGI in experiment [9], in [10] and in [7] was greater than 10 µM each time.
Compound `Nc1c(-c2ccccc2[N+](=O)[O-])nc2ccccn12` registered a TGI in [9] greater than 100 µM.
Consider `CCOC(=O)CCC(NC(=O)OCc1ccccc1)C(=O)NC(CCC(=O)OCC)C(=O)NNC(=O)OC(C)(C)C` (stereo unspecified), for which the TGI in [8], in experiment [2], in experiment [3], in experiment [5], in [6] and in experiment [9] was greater than 100 µM each time. The TGI in [10] and in [7] was greater than 100 µM throughout.
For `c1cncc(O[Si](Oc2cccnc2)(Oc2cccnc2)Oc2cccnc2)c1`, the TGI in experiment [1], in experiment [9] and in experiment [10] was greater than 100 µM in each case.
For `COc1cc(-c2n/c(=C\c3c(O)[nH]c4cc(Cl)ccc34)cc3c2=Nc2ccccc2-3)cc(OC)c1OC`, the GI50 is 4.8 µM in [1]; 2.25 µM in experiment [8]; 2.57 µM in experiment [2]; 2.71 µM in experiment [3]; 3.17 µM in experiment [4]; 6.39 µM in [5]. Also, the GI50 in [6] was 2.84 µM; in experiment [9], 4.15 µM; in experiment [10], 5.05 µM; in experiment [7], 4.19 µM. For the same compound, the TGI in experiment [1] was determined as 21.9 µM; in experiment [8] it was 5.12 µM; in [2], 7.52 µM; in [3], 13.6 µM; in experiment [4], 11.3 µM; in experiment [5], 51.3 µM. The TGI in experiment [6] turned out to be 20.1 µM; in experiment [9] it was 26.1 µM; in experiment [10], 25.1 µM; in experiment [7], 18.5 µM.
